Assay results as given in the Deep4Chem optical property database.
Where “and” joins values, the source holds several entries; their conditions need not be identical. Equal values may be shown once.

Experiment: solvent given as SMILES

CN(C)c1ccc(C2=Cc3cccc[n+]3[B-](F)(F)O2)cc1
fluorescence lifetime (in ClC(Cl)Cl): 2.68 ns

CCCCCCCCCCOc1cc2cc(C#Cc3ccc(/C=C(\C#N)C(=O)O)cc3)c(=O)oc2cc1OCCCCCCCCCC
fluorescence lifetime (in CC#N): 1.1 ns

CC1=CC(C)=[N+]2C1=Cc1ccc(CCC(=O)ON3C(=O)CCC3=O)n1[B-]2(F)F
fluorescence lifetime (in CO): 5.7 ns

O=S1c2ccccc2-c2cc(-c3c4ccccc4cc4ccccc34)ccc21 (centres undefined)
fluorescence lifetime (in C1CCCCC1): 2.4 ns
fluorescence lifetime (in CC#N): 3.5 ns
fluorescence lifetime (in ClCCl): 3.3 ns

Nc1cccc2cc3ccccc3cc12
fluorescence lifetime (in C1CCCCC1): 29 ns

c1ccc(-c2nc(-c3ccc(-c4cccs4)s3)[nH]c2-c2ccccc2)cc1
fluorescence lifetime (in CC#N): 0.86 ns

CC1(C)c2ccccc2N(c2c(F)cc(-c3nnc(-c4ccccc4)o3)cc2F)c2ccccc21
fluorescence lifetime (in Cc1ccccc1): 8.8 ns

CCN(CC)c1ccc2cc(/C=C/c3ccccc3)c(=O)oc2c1
fluorescence lifetime (in CC#N): 2.25 ns

COC(=O)C12N=N[C@](C(=O)OC)(C3C4CCC(C4)C31)[C@@]1(C)C[C@@H]21 (some centres undefined)
fluorescence lifetime (in CC#N): 116 ns

CN(C)c1ccc(C2=Nc3scc(-c4ccc(N(C)C)cc4)[n+]3[B-](F)(F)O2)cc1
fluorescence lifetime (in C1CCOC1): 0.21 ns

CC(C)n1c(=O)c2cc3ccc4cccc5ccc(c2c1=O)c3c45
fluorescence lifetime (in ClC(Cl)Cl): 5.16 ns

CN(C)c1ccc2nc(/C=C/c3cc4c5c(c3)CCCN5CCC4)c(=O)oc2c1
fluorescence lifetime (in C1COCCO1): 2.9 ns
fluorescence lifetime (in CC#N): 0.22 ns
fluorescence lifetime (in CC(C)=O): 0.8 ns
fluorescence lifetime (in CCCCCCC): 2.02 ns
fluorescence lifetime (in CCOC(C)=O): 2.4 ns
fluorescence lifetime (in CN(C)C=O): 0.18 ns
fluorescence lifetime (in CS(C)=O): 0.32 ns
fluorescence lifetime (in Cc1ccccc1): 2.6 ns
fluorescence lifetime (in ClC(Cl)Cl): 1.35 ns
fluorescence lifetime (in ClCCl): 1.35 ns

O=S(=O)(c1ccc(N(c2ccccc2)c2ccccc2)cc1)c1ccc(N(c2ccccc2)c2ccccc2)cc1
fluorescence lifetime (in Cc1ccccc1): 2.2 ns
fluorescence lifetime (in O=P(c1ccccc1)(c1ccccc1)c1ccccc1Oc1ccccc1P(=O)(c1ccccc1)c1ccccc1): 3.5 ns

c1ccc(-p2c3ccccc3c3sc4ccccc4c32)cc1 (centres undefined)
fluorescence lifetime (in ClCCl): 3.57 ns

COc1ccc(C2=C3C(C)=CC(C=Cc4ccc(C(=O)OC5C[C@H]6CCC5(C)C6(C)C)cc4)=[N+]3[B-](F)(F)n3c(/C=C/c4ccc(C(=O)OC5CC6CCC5(C)C6(C)C)cc4)cc(C)c32)cc1 (some centres undefined)
fluorescence lifetime (in Cc1ccccc1): 2.6 ns

COc1ccc(-c2nc(-c3ccc(-c4nc(-c5ccc(OC)cc5)c(-c5ccc(OC)cc5)[nH]4)cc3)[nH]c2-c2ccc(OC)cc2)cc1
fluorescence lifetime (in CC#N): 1.1 ns and 1.24 ns

CCN(CC)c1ccc2cc3c([o+]c2c1)/C(=C/Nc1ccccc1)CCC3
fluorescence lifetime (in CCO): 4.05 ns
fluorescence lifetime (in ClC(Cl)Cl): 2.65 ns
fluorescence lifetime (in ClCCl): 4.97 ns

c1ccc(N2c3ccc4ccccc4c3-c3c4ccccc4nc[n+]3[B-]2(c2ccccc2)c2ccccc2)cc1
fluorescence lifetime (in C1CCC2CCCCC2C1): 3.42 ns
fluorescence lifetime (in C1CCCCC1): 3.43 ns
fluorescence lifetime (in C1CCOC1): 0.54 ns
fluorescence lifetime (in CC#N): 0.21 ns
fluorescence lifetime (in CC(C)=O): 0.21 ns
fluorescence lifetime (in CCCCCC): 3.4 ns
fluorescence lifetime (in CCOC(C)=O): 0.57 ns
fluorescence lifetime (in Cc1ccccc1): 1.56 ns
fluorescence lifetime (in ClC(Cl)Cl): 0.49 ns

CCN(CC)c1ccc2cc(/C=C/C(=C(C#N)C#N)c3ccc4c(c3)c3ccccc3n4CC)c(=O)oc2c1
fluorescence lifetime (in CC(C)=O): 4.49 ns
fluorescence lifetime (in CCOC(C)=O): 3.49 ns
fluorescence lifetime (in CN(C)C=O): 4.81 ns
fluorescence lifetime (in CS(C)=O): 4.66 ns
fluorescence lifetime (in Cc1ccccc1): 1.15 ns
fluorescence lifetime (in ClCCl): 3.32 ns

CCN(CC)c1ccc(/N=N/c2nc3ccc(Br)cc3s2)cc1
fluorescence lifetime (in CC#N): 3.03 ns
fluorescence lifetime (in ClCCl): 2.75 ns

CC1(C)CC(/C=C/c2ccc(-n3cccn3)cc2)=CC(=C(C#N)C#N)C1
fluorescence lifetime (in CCO): 0.05 ns

N#Cc1c(-n2c3ccccc3c3ccccc32)c(C#N)c(-n2c3ccccc3c3ccccc32)c(-n2c3ccccc3c3ccccc32)c1-n1c2ccccc2c2ccccc21
fluorescence lifetime (in Cc1ccccc1): 17.8 ns

COc1ccc(C(=Cc2ccc(C#N)cc2)c2ccc(OC)cc2)cc1
fluorescence lifetime (in C1CCOC1): 6.9 ns

N#Cc1ccc(C#Cc2ccccc2C#N)cc1
fluorescence lifetime (in ClC(Cl)Cl): 2.64 ns

Cc1cc(C2=Cc3cccc[n+]3[B-](F)(F)O2)ccc1N(C)C
fluorescence lifetime (in ClC(Cl)Cl): 2.74 ns

CCCCCCCCN1c2ccccc2Sc2cc(/C=C/c3ccc(N(c4ccc(/C=C/c5ccc6c(c5)Sc5ccccc5N6CCCCCCCC)cc4)c4ccc(/C=C/c5ccc(/C=C/c6ccc(N(c7ccc(/C=C/c8ccc9c(c8)Sc8ccccc8N9CCCCCCCC)cc7)c7ccc(/C=C/c8ccc9c(c8)Sc8ccccc8N9CCCCCCCC)cc7)cc6)c6nsnc56)cc4)cc3)ccc21
fluorescence lifetime (in C1CCOC1): 1.45 ns
fluorescence lifetime (in CCOC(C)=O): 1.83 ns
fluorescence lifetime (in Cc1ccccc1): 3.53 ns
fluorescence lifetime (in ClC(Cl)Cl): 2.25 ns
fluorescence lifetime (in ClCCl): 2 ns

CCOC(=O)CN1C(=O)C2=C(c3ccc(C#N)cc3)N(CC(=O)OCC)C(=O)C2=C1c1ccccc1
fluorescence lifetime (in CC#N): 5.78 ns
fluorescence lifetime (in CS(C)=O): 7.07 ns
fluorescence lifetime (in Cc1ccccc1): 4.24 ns

C(/C=C/c1cc2c3c(c1)CCCN3CCC2)=C\c1ccncc1
fluorescence lifetime (in C1COCCO1): 0.25 ns
fluorescence lifetime (in CC#N): 0.57 ns

CCn1c2ccccc2c2cc(-c3cc(-c4ccc5c(c4)c4ccccc4n5CC)nc(-c4ccc(C#N)cc4)n3)ccc21
fluorescence lifetime (in C1CCOC1): 5.14 ns

c1ccc(Nc2nc(Nc3ccccc3)nc(Nc3ccc4ccc5cccc6ccc3c4c56)n2)cc1
fluorescence lifetime (in CCCCCCC): 4.3 ns

Cc1c2oc3c(C)c(N)cc(C(=O)NC4OC(=O)C(C(C)C)N(C)C(=O)CN(C)C(=O)C5CCCN5C(=O)C(C(C)C)NC4=O)c3nc-2c(C(=O)NC2OC(=O)C(C(C)C)N(C)C(=O)CN(C)C(=O)C3CCCN3C(=O)C(C(C)C)NC2=O)c(N)c1=O (centres undefined)
fluorescence lifetime (in C1CCCCC1): 1.07 ns
fluorescence lifetime (in CC#N): 1.54 ns
fluorescence lifetime (in CC(=O)O): 0.49 ns
fluorescence lifetime (in CC(C)=O): 0.93 ns
fluorescence lifetime (in CCCCO): 1.5 ns
fluorescence lifetime (in CCCCOC(C)=O): 1.1 ns
fluorescence lifetime (in CCCO): 1.34 ns
fluorescence lifetime (in CCN(CC)CC): 0.62 ns
fluorescence lifetime (in CCO): 1.22 ns
fluorescence lifetime (in CCOC(C)=O): 1.19 ns
fluorescence lifetime (in CO): 0.5 ns
fluorescence lifetime (in CS(C)=O): 1.8 ns
fluorescence lifetime (in Cc1ccccc1): 1.23 ns
fluorescence lifetime (in ClC(Cl)Cl): 1.02 ns
fluorescence lifetime (in ClCCCl): 1.16 ns
fluorescence lifetime (in O): 0.75 ns
fluorescence lifetime (in O=[N+]([O-])c1ccccc1): 0.37 ns
fluorescence lifetime (in [2H]O[2H]): 1.08 ns
fluorescence lifetime (in c1ccccc1): 1.22 ns
fluorescence lifetime (in c1ccncc1): 1.53 ns

Cc1ccccc1-c1ccccc1C
fluorescence lifetime (in C1CCCCC1): 2.5 ns

CCCCC(CC)COc1ccc2nc(-c3ccc(-c4ccc(OC)cc4)s3)sc2c1 (centres undefined)
fluorescence lifetime (in ClCCl): 1.52 ns

Cc1cc(C#Cc2ccccc2)c2ccc3c(C#Cc4ccccc4)cc(C#Cc4ccccc4)c4ccc1c2c43
fluorescence lifetime (in CS(C)=O): 1.89 ns
fluorescence lifetime (in ClC(Cl)(Cl)Cl): 1.57 ns

COc1cnc(-c2cc[n+](C3=C(F)C(F)(F)C(F)(F)[C-]3F)cc2)s1
fluorescence lifetime (in CC#N): 2.3 ns
fluorescence lifetime (in CC(C)=O): 2.3 ns
fluorescence lifetime (in CCO): 1.04 ns
fluorescence lifetime (in CN(C)C=O): 0.41 ns
fluorescence lifetime (in CO): 0.54 ns
fluorescence lifetime (in CS(C)=O): 0.22 ns
fluorescence lifetime (in ClC(Cl)Cl): 2.85 ns
fluorescence lifetime (in ClCCl): 2.81 ns

C(#Cc1ccccc1)C(C#Cc1ccccc1)=Cc1ccc2cc(C=C(C#Cc3ccccc3)C#Cc3ccccc3)ccc2c1
fluorescence lifetime (in ClC(Cl)Cl): 1.1 ns

CN(C)c1ccc2nc(-c3ccc(C=C(C#N)C#N)cc3)sc2c1
fluorescence lifetime (in C1CCCCC1): 3.1 ns

CC(=O)O[B-]1(OC(C)=O)OC(/C=C/C=C/c2ccccc2)=CC(/C=C/C=C/c2ccccc2)=[O+]1
fluorescence lifetime (in C1CCOC1): 2.38 ns
fluorescence lifetime (in CC#N): 1.81 ns
fluorescence lifetime (in CC(C)=O): 1.77 ns
fluorescence lifetime (in CS(C)=O): 2.03 ns
fluorescence lifetime (in Cc1ccccc1): 2.57 ns
fluorescence lifetime (in ClC(Cl)Cl): 1.93 ns
fluorescence lifetime (in ClCCl): 1.84 ns

O=C1c2ccc3c4c(Oc5ccccc5)cc5c6c(ccc(c7c(Oc8ccccc8)cc(c2c37)C(=O)N1c1ccc(O)cc1)c64)C(=O)N(c1ccc(O)cc1)C5=O
fluorescence lifetime (in C1CCOC1): 7.52 ns
fluorescence lifetime (in CN1CCCC1=O): 1.62 ns
fluorescence lifetime (in CN(C)C=O): 0.05 ns

CC1=[N+]2C(=C(c3ccc(C(=C(c4ccccc4)c4ccccc4)c4ccccc4)cc3)c3ccc(/C=C/c4ccc(C(=C(c5ccccc5)c5ccccc5)c5ccccc5)cc4)n3[B-]2(F)F)C=C1
fluorescence lifetime (in C1CCOC1): 3.5 ns

COc1ccc2c3c(cccc13)C(=O)c1ccccc1-2
fluorescence lifetime (in CC#N): 13.2 ns
fluorescence lifetime (in CC(C)=O): 10.5 ns
fluorescence lifetime (in CC(C)O): 12.7 ns
fluorescence lifetime (in CCCCOCCCC): 0.6 ns
fluorescence lifetime (in CCOC(C)=O): 4.1 ns
fluorescence lifetime (in CCOCC): 0.9 ns
fluorescence lifetime (in CO): 12.6 ns
fluorescence lifetime (in Cc1ccccc1): 1.4 ns
fluorescence lifetime (in Clc1ccccc1): 6 ns
fluorescence lifetime (in N#Cc1ccccc1): 14.1 ns
fluorescence lifetime (in O=C1CCCCC1): 7.8 ns

O=c1oc2ccccc2cc1-c1ccc(-c2cc3ccccc3oc2=O)cc1
fluorescence lifetime (in ClC(Cl)Cl): 1.4 ns

CCOc1cc2c(cc1/C=C/C(=C(C#N)C#N)c1ccccc1)c1ccccc1n2CC
fluorescence lifetime (in C1CCOC1): 5.66 ns
fluorescence lifetime (in CC#N): 5.72 ns
fluorescence lifetime (in CCO): 5.24 ns
fluorescence lifetime (in CCOC(C)=O): 5.19 ns
fluorescence lifetime (in CN(C)C=O): 5.41 ns
fluorescence lifetime (in CS(C)=O): 7.08 ns
fluorescence lifetime (in Cc1ccccc1): 6.76 ns
fluorescence lifetime (in ClC(Cl)Cl): 7.78 ns
fluorescence lifetime (in ClCCl): 5.13 ns

COc1ccc(C2=C(c3ccccc3)C(c3ccccc3)=[N+]3C2=Nc2c(-c4ccc(OC)cc4)c(-c4ccccc4)c(-c4ccccc4)n2[B-]3(F)F)cc1
fluorescence lifetime (in Cc1ccccc1): 0.26 ns

CCCCOC(=O)c1cc(Cl)c2c3c(Cl)cc4c5c(cc(Cl)c(c6c(Oc7ccc(C(=O)OC)cc7)cc(C(=O)OCCCC)c1c26)c53)C(=O)N(c1c(C(C)C)cccc1C(C)C)C4=O
fluorescence lifetime (in Cc1ccccc1): 6.09 ns

CC1=[N+]2C(=C(c3ccccc3)c3ccc(/C=C/c4ccc(C(=C(c5ccccc5)c5ccccc5)c5ccccc5)cc4)n3[B-]2(F)F)C=C1
fluorescence lifetime (in C1CCOC1): 5.43 ns

CCCCc1ccc2ccc3c(CCCC)ccc4ccc1c2c43
fluorescence lifetime (in CCCCCC): 57.8 ns
fluorescence lifetime (in CO): 70.6 ns
fluorescence lifetime (in ClCCl): 42 ns

CC[N+](CC)=c1ccc2c(-c3ccccc3C(=O)O)c3cc4c(-c5ccccc5C(=O)O)c5ccc(=[N+](CC)CC)cc-5oc4cc3oc-2c1
fluorescence lifetime (in ClC(Cl)Cl): 0.72 ns

c1ccc2c(c1)[nH]c1cccnc12
fluorescence lifetime (in C1CCCCC1): 4.6 ns

COc1ccc(C2=CC(c3cc(OC)cc(OC)c3)=[O+][B-](F)(F)O2)cc1
fluorescence lifetime (in ClCCl): 7.4 ns

COc1ccc2cc(-c3ccc(-c4cc5ccc(OC)cc5oc4=O)cc3)c(=O)oc2c1
fluorescence lifetime (in ClC(Cl)Cl): 1.4 ns

O=S1(=O)c2ccccc2-c2cc(-c3c4ccccc4cc4ccccc34)ccc21
fluorescence lifetime (in C1CCCCC1): 3.3 ns
fluorescence lifetime (in CC#N): 3.8 ns
fluorescence lifetime (in ClCCl): 3.4 ns
